From ChEMBL document CHEMBL1201862, “PubChem BioAssay data set” (2004)
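96-well plates; 48 h exposure; 5 concentrations. Endpoints by linear interpolation between flanking doses. Not reached: highest tested concentration assigned. GI50 = concentration required for 50% inhibition of growth.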 Active and inactive are the calls of the source. Rule as the data show it: active = GI50 up to about 1.1 µM and inactive = higher.

Columns and labels:
Assay in all cases: DTP human tumour cell line panel, 48 h
[1] = tested on: ACHN
[2] = tested on: CCRF-CEM
[3] = tested on: DU-145
[4] = tested on: EKVX
[5] = tested on: HOP-92
[6] = tested on: LOX IMVI
[7] = tested on: M14
[8] = tested on: MCF7
[9] = tested on: NCI/ADR-RES
[10] = tested on: SK-MEL-28
[11] = tested on: SK-OV-3
[12] = tested on: SNB-19
[13] = tested on: SNB-75
[14] = tested on: UACC-257
[15] = tested on: BT-549
[16] = tested on: HT-29
[17] = tested on: K562

Measured: GI50

CC(C)(C)OC(=O)C1CC[C@@H](CC(=O)Oc2ccc([N+](=O)[O-])cc2)N1 (stereo partly specified)
inactive: [1] > 100 µM | [2] > 100 µM | [3] > 100 µM | [4] > 100 µM | [5] > 100 µM | [6] > 100 µM | [7] > 100 µM | [8] > 100 µM | [9] > 100 µM | [10] > 100 µM | [11] > 100 µM | [12] > 100 µM | [13] > 100 µM | [14] > 100 µM

Cc1ncc([N+](=O)[O-])n1CCN(C)CCCCn1ccnc1[N+](=O)[O-]
inactive: [1] > 100 µM | [15] > 100 µM | [2] > 100 µM | [3] > 100 µM | [4] > 100 µM | [16] > 100 µM | [17] > 100 µM | [6] > 100 µM | [7] > 100 µM | [8] > 100 µM | [10] > 100 µM | [11] > 100 µM | [12] > 100 µM | [13] > 100 µM | [14] > 100 µM

O=S(=O)(N/C(=N\O)Nc1ccc(Cl)cc1)c1cc(C(F)(F)F)cc(C(F)(F)F)c1
inactive: [1] 17.3 µM | [15] 18.7 µM | [2] 40.7 µM | [3] 21.3 µM | [4] 16.6 µM | [5] 16.2 µM | [16] 19 µM | [17] 29.9 µM | [6] 18.5 µM | [7] 17.4 µM | [9] 24.9 µM | [10] 19.2 µM | [11] 18.6 µM | [12] 17.1 µM | [13] 16 µM | [14] 20.9 µM

COc1cccc(/C=N/NC(N)=O)c1O
inactive: [1] > 100 µM | [2] > 100 µM | [4] > 100 µM | [5] > 100 µM | [16] > 100 µM | [17] > 100 µM | [6] > 100 µM | [7] > 100 µM | [10] > 100 µM | [11] > 100 µM | [12] > 100 µM | [13] > 100 µM | [14] > 100 µM

CCC(C)c1cnc(CC(C)C)c(=O)[nH]1 (stereo unspecified)
inactive: [1] > 100 µM | [15] > 100 µM | [2] 89.5 µM | [3] > 100 µM | [4] > 100 µM | [5] > 100 µM | [16] > 100 µM | [17] > 100 µM | [6] > 100 µM | [7] > 100 µM | [8] > 100 µM | [10] > 100 µM | [11] > 100 µM | [12] > 100 µM | [13] > 100 µM | [14] > 100 µM

CC1=NOC2(C1)C(=O)Nc1ccccc12 (stereo unspecified)
inactive: [1] > 100 µM | [2] > 100 µM | [3] > 100 µM | [4] > 100 µM | [16] > 100 µM | [17] > 100 µM | [6] > 100 µM | [7] > 100 µM | [8] 9.79 µM | [9] 44.5 µM | [10] > 100 µM | [11] > 100 µM | [12] 40.6 µM | [13] 66.2 µM | [14] > 100 µM

CC(C)SC(NC(=O)C1C(C)(C)CCC1(C)C)C(=O)O (stereo unspecified)
inactive: [1] > 100 µM | [2] > 100 µM | [3] > 100 µM | [4] > 100 µM | [5] > 100 µM | [17] > 100 µM | [6] > 100 µM | [7] > 100 µM | [8] > 100 µM | [9] > 100 µM | [10] > 100 µM | [11] > 100 µM | [12] > 100 µM | [13] > 100 µM

COc1ccc(-c2c(C#N)c(O)n(NS(=O)(=O)c3ccc(C)cc3)c(=O)c2C#N)cc1
inactive: [1] 47.9 µM | [15] 54.8 µM | [2] 33.4 µM | [4] 70.8 µM | [5] 4.71 µM | [16] > 100 µM | [6] 45.4 µM | [7] > 100 µM | [8] 48.6 µM | [9] 61.9 µM | [10] 82.8 µM | [11] > 100 µM | [12] 83.2 µM | [13] > 100 µM | [14] > 100 µM

O=C1CCC2c3ccccc3NCN12 (stereo unspecified)
inactive: [1] > 100 µM | [2] > 100 µM | [3] > 100 µM | [4] > 100 µM | [5] > 100 µM | [16] > 100 µM | [17] > 100 µM | [6] > 100 µM | [7] > 100 µM | [8] > 100 µM | [9] > 100 µM | [10] > 100 µM | [11] > 100 µM | [12] > 100 µM | [13] > 100 µM | [14] > 100 µM

C/C=C/C(C#N)(/C=C/c1ccccc1)OP1(=O)OC(c2ccccc2)C(C)N1C (stereo unspecified)
inactive: [1] 26.9 µM | [2] 11 µM | [3] 30 µM | [4] 20.6 µM | [5] 14.6 µM | [16] 19.7 µM | [17] 16.4 µM | [6] 18.2 µM | [7] 20 µM | [8] 22.8 µM | [10] 17.1 µM | [11] 25.8 µM | [12] 20.7 µM | [13] 20.5 µM | [14] 19.1 µM

O=C1C2CCCCC2C(=O)N1n1c(Cc2ccccc2)n[nH]c1=O (stereo unspecified)
inactive: [1] > 100 µM | [15] > 100 µM | [2] > 100 µM | [4] > 100 µM | [5] > 100 µM | [16] > 100 µM | [17] > 100 µM | [6] > 100 µM | [7] > 100 µM | [8] > 100 µM | [9] > 100 µM | [11] > 100 µM | [12] > 100 µM | [13] > 100 µM | [14] > 100 µM

COC(=O)C(/C(=N/N)C(=O)Nc1cc(Cl)c(Cl)cc1Cl)c1nc2ccc(Cl)cc2nc1O (stereo unspecified)
inactive: [1] 44.8 µM | [15] > 100 µM | [2] > 10 µM | [4] 29.1 µM | [5] > 100 µM | [16] > 100 µM | [17] > 100 µM | [6] > 100 µM | [7] > 100 µM | [8] > 100 µM | [9] 84.5 µM | [10] > 100 µM | [11] > 100 µM | [13] > 100 µM | [14] > 100 µM

CCOC(=O)c1c(N)sc2c1C(C(=O)OCC)CC2 (stereo unspecified)
inactive: [1] > 100 µM | [15] 72.3 µM | [4] > 100 µM | [5] > 100 µM | [16] > 100 µM | [17] 46.5 µM | [7] > 100 µM | [8] > 100 µM | [10] > 100 µM | [12] > 100 µM | [13] 79.3 µM | [14] > 100 µM
